In ChEMBL document CHEMBL3769367, “Orexin Receptor Antagonists: New Therapeutic Agents for the Treatment of Insomnia” (J Med Chem, 2016):

Experiments:
[1] = test system: Rattus norvegicus; assay: Effect on sleep parameter in po dosed rat by EEG analysis; format: functional
[2] = test system: Homo sapiens; assay: Effect on sleep parameter in insomnia patient assessed as total sleep time at 80 mg, po measured on night 1 by polysomnography; format: functional
[3] = test system: Homo sapiens; assay: Effect on sleep parameter in insomnia patient assessed as wake after sleep onset time at 20 mg, po measured on night 28 by polysomnography; format: functional
[4] = Plasma protein binding in dog; format: ADME, cell-free, Canis lupus familiaris; conditions: read-out: PPB (converted)
[5] = species: Rattus norvegicus; assay: Receptor occupancy at OX2R in rat brain assessed as drug level in plasma; format: functional
[6] = Clearance in iv dosed rat; format: ADME, organism-based; conditions: in vivo
[7] = test system: Canis familiaris; assay: Effect on sleep parameter in po dosed dog by EEG analysis; format: functional, Canis lupus familiaris
[8] = test system: Homo sapiens; assay: Effect on sleep parameter in insomnia patient assessed as total sleep time at 80 mg, po measured on night 28 by polysomnography; format: functional
[9] = Apparent permeability of the compound; format: physicochemical; conditions: not told
[10] = Tmax in human plasma; format: ADME, organism-based
[11] = Terminal half life in human plasma; format: ADME, organism-based; conditions: read-out: beta t1/2 (converted)
[12] = test system: Homo sapiens; assay: Effect on sleep parameter in insomnia patient assessed as sleep efficiency at 10 mg, po measured on night 1 by polysomnography; format: functional
[13] = test system: Homo sapiens; assay: Effect on sleep parameter in insomnia patient assessed as latency to persistent sleep time at 10 mg, po measured on night 1 by polysomnography; format: functional
[14] = test system: Homo sapiens; assay: Effect on sleep parameter in insomnia patient assessed as wake after sleep onset time at 10 mg, po measured on night 1 by polysomnography; format: functional
[15] = test system: Homo sapiens; assay: Effect on sleep parameter in insomnia patient assessed as total sleep time at 10 mg, po measured on night 1 by polysomnography; format: functional
[16] = test system: Homo sapiens; assay: Effect on sleep parameter in insomnia patient assessed as sleep efficiency at 20 mg, po measured on night 1 by polysomnography; format: functional
[17] = test system: Homo sapiens; assay: Effect on sleep parameter in insomnia patient assessed as latency to persistent sleep time at 20 mg, po measured on night 1 by polysomnography; format: functional
[18] = test system: Homo sapiens; assay: Effect on sleep parameter in insomnia patient assessed as wake after sleep onset time at 20 mg, po measured on night 1 by polysomnography; format: functional
[19] = test system: Homo sapiens; assay: Effect on sleep parameter in insomnia patient assessed as total sleep time at 20 mg, po measured on night 1 by polysomnography; format: functional
[20] = test system: Homo sapiens; assay: Effect on sleep parameter in insomnia patient assessed as sleep efficiency at 40 mg, po measured on night 1 by polysomnography; format: functional
[21] = test system: Homo sapiens; assay: Effect on sleep parameter in insomnia patient assessed as latency to persistent sleep time at 40 mg, po measured on night 1 by polysomnography; format: functional
[22] = test system: Homo sapiens; assay: Effect on sleep parameter in insomnia patient assessed as wake after sleep onset time at 40 mg, po measured on night 1 by polysomnography; format: functional
[23] = test system: Homo sapiens; assay: Effect on sleep parameter in insomnia patient assessed as total sleep time at 40 mg, po measured on night 1 by polysomnography; format: functional
[24] = test system: Homo sapiens; assay: Effect on sleep parameter in insomnia patient assessed as sleep efficiency at 80 mg, po measured on night 1 by polysomnography; format: functional
[25] = test system: Homo sapiens; assay: Effect on sleep parameter in insomnia patient assessed as latency to persistent sleep time at 80 mg, po measured on night 1 by polysomnography; format: functional
[26] = test system: Homo sapiens; assay: Effect on sleep parameter in insomnia patient assessed as wake after sleep onset time at 80 mg, po measured on night 1 by polysomnography; format: functional
[27] = test system: Homo sapiens; assay: Effect on sleep parameter in insomnia patient assessed as sleep efficiency at 10 mg, po measured on night 28 by polysomnography; format: functional
[28] = test system: Homo sapiens; assay: Effect on sleep parameter in insomnia patient assessed as latency to persistent sleep time at 10 mg, po measured on night 28 by polysomnography; format: functional
[29] = test system: Homo sapiens; assay: Effect on sleep parameter in insomnia patient assessed as wake after sleep onset time at 10 mg, po measured on night 28 by polysomnography; format: functional
[30] = test system: Homo sapiens; assay: Effect on sleep parameter in insomnia patient assessed as total sleep time at 10 mg, po measured on night 28 by polysomnography; format: functional
[31] = test system: Homo sapiens; assay: Effect on sleep parameter in insomnia patient assessed as sleep efficiency at 20 mg, po measured on night 28 by polysomnography; format: functional
[32] = test system: Homo sapiens; assay: Effect on sleep parameter in insomnia patient assessed as latency to persistent sleep time at 20 mg, po measured on night 28 by polysomnography; format: functional
[33] = test system: Homo sapiens; assay: Effect on sleep parameter in insomnia patient assessed as total sleep time at 20 mg, po measured on night 28 by polysomnography; format: functional
[34] = test system: Homo sapiens; assay: Effect on sleep parameter in insomnia patient assessed as sleep efficiency at 40 mg, po measured on night 28 by polysomnography; format: functional
[35] = test system: Homo sapiens; assay: Effect on sleep parameter in insomnia patient assessed as latency to persistent sleep time at 40 mg, po measured on night 28 by polysomnography; format: functional
[36] = test system: Homo sapiens; assay: Effect on sleep parameter in insomnia patient assessed as wake after sleep onset time at 40 mg, po measured on night 28 by polysomnography; format: functional
[37] = test system: Homo sapiens; assay: Effect on sleep parameter in insomnia patient assessed as total sleep time at 40 mg, po measured on night 28 by polysomnography; format: functional
[38] = test system: Homo sapiens; assay: Effect on sleep parameter in insomnia patient assessed as sleep efficiency at 80 mg, po measured on night 28 by polysomnography; format: functional
[39] = test system: Homo sapiens; assay: Effect on sleep parameter in insomnia patient assessed as latency to persistent sleep time at 80 mg, po measured on night 28 by polysomnography; format: functional
[40] = test system: Homo sapiens; assay: Effect on sleep parameter in insomnia patient assessed as wake after sleep onset time at 80 mg, po measured on night 28 by polysomnography; format: functional

Compound `Cc1ccc(-n2nccn2)c(C(=O)N2CCN(c3nc4cc(Cl)ccc4o3)CC[C@H]2C)c1` [SUVOREXANT] has an Activity [1] of 10 mg/kg, a Time [2] of 61.9 min and a Time [3] of -28.1 min. For the same compound, the fraction unbound [4] was 0.01, the Occ90 [5] was 1070 nM and the clearance [6] was 44 mL/min/kg. It also gave an Activity [7] of 3 mg/kg, a Time [8] of 36.6 min and a Papp [9] of 37 ×10⁻⁶ cm/s. It also gave a Tmax [10] of 1.5 h, a half-life [11] of 480 min and an Activity [12] of 5.2%. It also gave a Time [13] of -3.4 min, a Time [14] of -21.2 min and a Time [15] of 25.1 min. It also gave an Activity [16] of 7.6%, a Time [17] of -9.4 min and a Time [18] of -24.7 min. The Time [19] was 36.2 min, the Activity [20] was 10.8% and the Time [21] was -23.1 min. The Time [22] was -33.9 min, the Time [23] was 52.4 min and the Activity [24] was 12.9%. The Time [25] was -25.4 min, the Time [26] was -36.8 min and the Activity [27] was 4.7%. It also gave a Time [28] of -2.3 min, a Time [29] of -21.4 min and a Time [30] of 22.3 min. It also gave an Activity [31] of 10.4%, a Time [32] of -22.3 min and a Time [33] of 49.9 min. For the same compound, the Activity [34] was 7.8%, the Time [35] was -3.8 min and the Time [36] was -33.2 min. The Time [37] was 36.8 min, the Activity [38] was 7.6% and the Time [39] was -9.5 min. The Time [40] was -28.9 min.
